Assay results as given in ChEMBL document CHEMBL1144647, “Additional interaction of allophenylnorstatine-containing tripeptidomimetics with malarial aspartic protease plasmepsin II” (Bioorg Med Chem Lett, 2007).

Target: Plasmepsin II (Plasmodium falciparum, UniProt P46925)
Assay: Inhibition of Plasmodium falciparum plasmepsin-2

Sequence of Plasmepsin II (P46925 whole entry): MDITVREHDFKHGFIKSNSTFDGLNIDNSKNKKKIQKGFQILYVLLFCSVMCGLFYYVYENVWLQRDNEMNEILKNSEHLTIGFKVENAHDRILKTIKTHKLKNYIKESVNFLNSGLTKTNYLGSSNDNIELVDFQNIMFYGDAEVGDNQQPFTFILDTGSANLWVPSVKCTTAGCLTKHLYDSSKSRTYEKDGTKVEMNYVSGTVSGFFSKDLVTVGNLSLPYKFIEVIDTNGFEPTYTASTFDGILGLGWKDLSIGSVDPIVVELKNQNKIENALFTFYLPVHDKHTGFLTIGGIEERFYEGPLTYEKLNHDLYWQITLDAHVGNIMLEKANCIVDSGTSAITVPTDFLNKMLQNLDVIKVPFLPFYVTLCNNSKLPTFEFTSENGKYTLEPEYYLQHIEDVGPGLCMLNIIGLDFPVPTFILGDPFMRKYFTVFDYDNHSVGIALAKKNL

Ki | SMILES
0.2 nM | CSC[C@H](NC(=O)Cc1ccccc1C)C(=O)N[C@@H](Cc1ccccc1)[C@H](O)C(=O)N1CSC(C)(C)[C@H]1C(=O)N[C@H]1c2ccccc2C[C@H]1O
5 nM | CSC[C@H](NC(=O)Cc1ccc(C)cc1)C(=O)N[C@@H](Cc1ccccc1)[C@H](O)C(=O)N1CSC(C)(C)[C@H]1C(=O)N[C@H]1c2ccccc2C[C@H]1O
18 nM | CSC[C@H](NC(=O)Cc1cccc(C)c1)C(=O)N[C@@H](Cc1ccccc1)[C@H](O)C(=O)N1CSC(C)(C)[C@H]1C(=O)N[C@H]1c2ccccc2C[C@H]1O
12 nM | CSC[C@H](NC(=O)Cc1cccc(N)c1)C(=O)N[C@@H](Cc1ccccc1)[C@H](O)C(=O)N1CSC(C)(C)[C@H]1C(=O)N[C@H]1c2ccccc2C[C@H]1O
≤ 0.1 nM | CSC[C@H](NC(=O)Cc1ccccc1)C(=O)N[C@@H](Cc1ccccc1)[C@H](O)C(=O)N1CSC(C)(C)[C@H]1C(=O)N[C@H]1c2ccccc2C[C@H]1O
15 nM | CSC[C@H](NC(=O)COc1cccc(Nc2ccccc2)c1)C(=O)N[C@@H](Cc1ccccc1)[C@H](O)C(=O)N1CSC(C)(C)[C@H]1C(=O)N[C@H]1c2ccccc2C[C@H]1O
3 nM | CSC[C@H](NC(=O)COc1cccc2cnccc12)C(=O)N[C@@H](Cc1ccccc1)[C@H](O)C(=O)N1CSC(C)(C)[C@H]1C(=O)N[C@H]1c2ccccc2C[C@H]1O
5 nM | CSC[C@H](NC(=O)OC1CCCCC1)C(=O)N[C@@H](Cc1ccccc1)[C@H](O)C(=O)N1CSC(C)(C)[C@H]1C(=O)N[C@H]1c2ccccc2C[C@H]1O
4 nM | COc1ccc(CC(=O)N[C@@H](CSC)C(=O)N[C@@H](Cc2ccccc2)[C@H](O)C(=O)N2CSC(C)(C)[C@H]2C(=O)N[C@H]2c3ccccc3C[C@H]2O)cc1
36 nM | CSC[C@H](NC(=O)COc1cccc2cnccc12)C(=O)N[C@@H](Cc1ccccc1)[C@H](O)C(=O)N1CSC(C)(C)[C@H]1C(=O)NC(C)(C)C
≤ 0.1 nM | CSC[C@H](NC(=O)Cc1ccc(O)cc1)C(=O)N[C@@H](Cc1ccccc1)[C@H](O)C(=O)N1CSC(C)(C)[C@H]1C(=O)N[C@H]1c2ccccc2C[C@H]1O
4 nM | CSC[C@H](NC(=O)Cc1ccccc1N)C(=O)N[C@@H](Cc1ccccc1)[C@H](O)C(=O)N1CSC(C)(C)[C@H]1C(=O)N[C@H]1c2ccccc2C[C@H]1O
1000 nM | CSC[C@H](NC(=O)COc1cccc2cnccc12)C(=O)N[C@@H](Cc1ccccc1)[C@H](O)C(=O)N1CSC[C@H]1C(=O)NC(C)(C)C
4 nM | CSC[C@H](NC(=O)Cc1cccc(O)c1)C(=O)N[C@@H](Cc1ccccc1)[C@H](O)C(=O)N1CSC(C)(C)[C@H]1C(=O)N[C@H]1c2ccccc2C[C@H]1O
17 nM | COc1cccc(CC(=O)N[C@@H](CSC)C(=O)N[C@@H](Cc2ccccc2)[C@H](O)C(=O)N2CSC(C)(C)[C@H]2C(=O)N[C@H]2c3ccccc3C[C@H]2O)c1
9 nM | COc1ccccc1CC(=O)N[C@@H](CSC)C(=O)N[C@@H](Cc1ccccc1)[C@H](O)C(=O)N1CSC(C)(C)[C@H]1C(=O)N[C@H]1c2ccccc2C[C@H]1O
0.5 nM | Cc1cccc(C)c1OCC(=O)N[C@@H](Cc1ccccc1)[C@H](O)C(=O)N1CSC(C)(C)[C@H]1C(=O)N[C@H]1c2ccccc2C[C@H]1O
≤ 0.1 nM | CSC[C@H](NC(=O)Cc1ccc(N)cc1)C(=O)N[C@@H](Cc1ccccc1)[C@H](O)C(=O)N1CSC(C)(C)[C@H]1C(=O)N[C@H]1c2ccccc2C[C@H]1O
16 nM | CSC[C@H](NC(=O)Cc1ccccc1O)C(=O)N[C@@H](Cc1ccccc1)[C@H](O)C(=O)N1CSC(C)(C)[C@H]1C(=O)N[C@H]1c2ccccc2C[C@H]1O
9 nM | CSC[C@H](NC(=O)c1cc(=O)c2ccccc2o1)C(=O)N[C@@H](Cc1ccccc1)[C@H](O)C(=O)N1CSC(C)(C)[C@H]1C(=O)N[C@H]1c2ccccc2C[C@H]1O

Test system: not listed separately
Assay: Selectivity for Plasmodium falciparum plasmepsin-2 over human cathepsin D

Ratio | SMILES
50 | CSC[C@H](NC(=O)COc1cccc2cnccc12)C(=O)N[C@@H](Cc1ccccc1)[C@H](O)C(=O)N1CSC(C)(C)[C@H]1C(=O)NC(C)(C)C

Test system: Plasmodium falciparum
Assay: Antimicrobial activity against Plasmodium falciparum in erythrocytes
Type: functional, organism-based

EC50 | SMILES
4700 nM | CSC[C@H](NC(=O)Cc1ccccc1C)C(=O)N[C@@H](Cc1ccccc1)[C@H](O)C(=O)N1CSC(C)(C)[C@H]1C(=O)N[C@H]1c2ccccc2C[C@H]1O
3100 nM | CSC[C@H](NC(=O)COc1cccc2cnccc12)C(=O)N[C@@H](Cc1ccccc1)[C@H](O)C(=O)N1CSC(C)(C)[C@H]1C(=O)N[C@H]1c2ccccc2C[C@H]1O
6800 nM | Cc1cccc(C)c1OCC(=O)N[C@@H](Cc1ccccc1)[C@H](O)C(=O)N1CSC(C)(C)[C@H]1C(=O)N[C@H]1c2ccccc2C[C@H]1O

Test system: Human immunodeficiency virus 1
Assay: Inhibition of HIV1 protease at 50 nM

inhibition | SMILES
83% | CSC[C@H](NC(=O)Cc1ccccc1C)C(=O)N[C@@H](Cc1ccccc1)[C@H](O)C(=O)N1CSC(C)(C)[C@H]1C(=O)N[C@H]1c2ccccc2C[C@H]1O
88% | CSC[C@H](NC(=O)Cc1ccc(C)cc1)C(=O)N[C@@H](Cc1ccccc1)[C@H](O)C(=O)N1CSC(C)(C)[C@H]1C(=O)N[C@H]1c2ccccc2C[C@H]1O
87% | CSC[C@H](NC(=O)Cc1cccc(C)c1)C(=O)N[C@@H](Cc1ccccc1)[C@H](O)C(=O)N1CSC(C)(C)[C@H]1C(=O)N[C@H]1c2ccccc2C[C@H]1O
76% | CSC[C@H](NC(=O)Cc1cccc(N)c1)C(=O)N[C@@H](Cc1ccccc1)[C@H](O)C(=O)N1CSC(C)(C)[C@H]1C(=O)N[C@H]1c2ccccc2C[C@H]1O
85% | CSC[C@H](NC(=O)Cc1ccccc1)C(=O)N[C@@H](Cc1ccccc1)[C@H](O)C(=O)N1CSC(C)(C)[C@H]1C(=O)N[C@H]1c2ccccc2C[C@H]1O
98% | CSC[C@H](NC(=O)COc1cccc(Nc2ccccc2)c1)C(=O)N[C@@H](Cc1ccccc1)[C@H](O)C(=O)N1CSC(C)(C)[C@H]1C(=O)N[C@H]1c2ccccc2C[C@H]1O
99% | CSC[C@H](NC(=O)COc1cccc2cnccc12)C(=O)N[C@@H](Cc1ccccc1)[C@H](O)C(=O)N1CSC(C)(C)[C@H]1C(=O)N[C@H]1c2ccccc2C[C@H]1O
56% | CSC[C@H](NC(=O)OC1CCCCC1)C(=O)N[C@@H](Cc1ccccc1)[C@H](O)C(=O)N1CSC(C)(C)[C@H]1C(=O)N[C@H]1c2ccccc2C[C@H]1O
91% | COc1ccc(CC(=O)N[C@@H](CSC)C(=O)N[C@@H](Cc2ccccc2)[C@H](O)C(=O)N2CSC(C)(C)[C@H]2C(=O)N[C@H]2c3ccccc3C[C@H]2O)cc1
88% | CSC[C@H](NC(=O)Cc1ccc(O)cc1)C(=O)N[C@@H](Cc1ccccc1)[C@H](O)C(=O)N1CSC(C)(C)[C@H]1C(=O)N[C@H]1c2ccccc2C[C@H]1O
86% | CSC[C@H](NC(=O)Cc1ccccc1N)C(=O)N[C@@H](Cc1ccccc1)[C@H](O)C(=O)N1CSC(C)(C)[C@H]1C(=O)N[C@H]1c2ccccc2C[C@H]1O
84% | CSC[C@H](NC(=O)Cc1cccc(O)c1)C(=O)N[C@@H](Cc1ccccc1)[C@H](O)C(=O)N1CSC(C)(C)[C@H]1C(=O)N[C@H]1c2ccccc2C[C@H]1O
88% | COc1cccc(CC(=O)N[C@@H](CSC)C(=O)N[C@@H](Cc2ccccc2)[C@H](O)C(=O)N2CSC(C)(C)[C@H]2C(=O)N[C@H]2c3ccccc3C[C@H]2O)c1
81% | COc1ccccc1CC(=O)N[C@@H](CSC)C(=O)N[C@@H](Cc1ccccc1)[C@H](O)C(=O)N1CSC(C)(C)[C@H]1C(=O)N[C@H]1c2ccccc2C[C@H]1O
68% | CSC[C@H](NC(=O)Cc1ccc(N)cc1)C(=O)N[C@@H](Cc1ccccc1)[C@H](O)C(=O)N1CSC(C)(C)[C@H]1C(=O)N[C@H]1c2ccccc2C[C@H]1O
86% | CSC[C@H](NC(=O)Cc1ccccc1O)C(=O)N[C@@H](Cc1ccccc1)[C@H](O)C(=O)N1CSC(C)(C)[C@H]1C(=O)N[C@H]1c2ccccc2C[C@H]1O
99% | CSC[C@H](NC(=O)c1cc(=O)c2ccccc2o1)C(=O)N[C@@H](Cc1ccccc1)[C@H](O)C(=O)N1CSC(C)(C)[C@H]1C(=O)N[C@H]1c2ccccc2C[C@H]1O
